PubChem BioAssay (NCI)
Several values for one entry are separate records, joined by “and”; a condition that tells them apart may be missing. Equal values may be shown once.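 Five compound concentrations were applied to cells in 96-well plates for 48 hours; endpoints were derived by simple linear interpolation of the resulting dose-response curve. The concentration for 50% growth inhibition is given as GI50. TGI: concentration producing complete growth inhibition.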

Legend:
Assay in all cases: NCI-60 cell line screen, 48 h
[1] = tested on: SF-295 CNS
[2] = tested on: MDA-MB-435
[3] = tested on: HS 578T breast
[4] = tested on: PC-3 prostate
[5] = tested on: SF-268 CNS
[6] = tested on: LOX IMVI melanoma
[7] = tested on: ACHN renal
[8] = tested on: SK-MEL-2 melanoma
[9] = tested on: SW-620 colon
[10] = tested on: NCI/ADR-RES ovarian

Row | SMILES | GI50 [1] | TGI [1] | GI50 [2] | TGI [2] | GI50 [3] | TGI [3] | GI50 [4] | TGI [4] | GI50 [5] | TGI [5] | GI50 [6] | TGI [6] | GI50 [7] | TGI [7] | GI50 [8] | TGI [8] | GI50 [9] | TGI [9] | GI50 [10] | TGI [10]
1 | Oc1ccccc1Nc1nc2ccccc2c2occc12 | 3.71 µM | 16.1 µM | 9.25 µM | 21.2 µM | 3.9 µM | 20.8 µM | 10.9 µM | 22.8 µM | 8.74 µM | 28.6 µM | 2.43 µM | 9.39 µM | 3.9 µM | 17 µM | 14.1 µM | 31 µM | 13.2 µM | 26 µM |  | 
2 | CC(=O)c1c(O)ccc2c(C)c(C(=O)O)oc12 | > 100 µM | > 100 µM | > 100 µM | > 100 µM | > 100 µM | > 100 µM | > 100 µM | > 100 µM | > 100 µM | > 100 µM | > 100 µM | > 100 µM | > 100 µM | > 100 µM |  |  | > 100 µM | > 100 µM | > 100 µM | > 100 µM
3 | COc1ccc(Cn2cnc3cc(C(=O)Nc4cccc5ccccc45)ccc32)c(OC)c1 | 0.0341 µM | > 100 µM | 0.0173 µM | 0.0358 µM | 0.0351 µM | > 100 µM | 0.051 µM | > 100 µM | 0.104 µM | > 51.7 µM | 0.0611 µM | > 100 µM | 0.078 µM | > 100 µM | 0.945 µM | > 100 µM | 0.0334 µM | > 100 µM | 0.042 µM | > 100 µM
4 | COc1cc(-n2cc(-c3ccc(F)cc3)[nH]c2=S)cc(OC)c1OC | 47 µM | > 100 µM | > 100 µM | > 100 µM | 18.3 µM | > 100 µM | 80.1 µM | > 100 µM | 32.8 µM | > 100 µM | > 100 µM | > 100 µM | > 100 µM | > 100 µM | > 100 µM | > 100 µM | > 100 µM | > 100 µM | > 100 µM | > 100 µM
5 | CCOCC(=O)N[C@H]1CCc2cc(OC(=O)COCC)c(OC)c(OC)c2-c2ccc(SC)c(=O)cc21 | 0.0198 µM |  |  | 0.00412 µM |  |  | 0.0164 µM |  | 0.0431 µM |  |  | > 100 µM | 0.0831 µM | > 100 µM | > 100 µM |  |  | > 100 µM |  | 5.49 µM
6 | COC(=O)c1cc2c3ccccc3n3c(=O)c4cc5cc(OC)c(N(S(=O)(=O)c6ccc(C)cc6)S(=O)(=O)c6ccc(C)cc6)cc5nc4c(n1)c23 | 5.15 µM | 21.7 µM | > 100 µM | > 100 µM | 4.97 µM | 54.2 µM | > 100 µM | > 100 µM | 7.78 µM | > 100 µM | 23.5 µM | > 100 µM | 6.03 µM | 22.2 µM |  |  | > 100 µM | > 100 µM | > 100 µM | > 100 µM
7 | COc1ccc(N(C)c2nc(Cl)nc3ccn(C)c23)cc1 | < 0.01 µM | > 100 µM |  |  | < 0.01 µM | > 100 µM | < 0.01 µM | > 100 µM | < 0.01 µM | > 100 µM | < 0.01 µM | > 100 µM | < 0.01 µM | > 100 µM |  |  | < 0.01 µM | > 100 µM | < 0.01 µM | > 100 µM
8 | COc1ccc(/C(=N\O)c2cc(OC)c(OC)c(OC)c2)c(OC)c1N | 2.37 µM | > 100 µM | 0.653 µM | 4.65 µM | 5.51 µM | > 100 µM | 4 µM | > 100 µM | 6.5 µM | > 100 µM | 5.38 µM | > 100 µM | 7.68 µM | > 100 µM | 7.48 µM | > 100 µM | 3.97 µM | > 100 µM |  | 
9 | CCCCCCCCCCCCSC(=NC)NC | 1.91 µM | 3.86 µM | 1.74 µM | 3.3 µM | 2.41 µM | 7.07 µM | 1.9 µM | 4.94 µM | 3.82 µM | 22.5 µM |  |  | 1.73 µM | 3.35 µM |  |  |  |  | 2.06 µM | 4.53 µM
10 | CC1CC(=O)C(CC(=O)O)C1C(C(=O)C(=O)Nc1c(C#N)cccc1[N+](=O)[O-])[N+](=O)[O-] (stereo not drawn) |  | > 100 µM |  |  |  |  |  |  |  | > 100 µM |  | > 100 µM |  | > 100 µM |  | > 100 µM |  | > 100 µM |  | 
11 | S=P1(c2ccccc2)Nc2ccc(Cl)cc2N1 (stereo not drawn) |  | > 100 µM |  |  |  |  |  |  |  | > 100 µM |  | > 100 µM |  | > 100 µM |  | > 100 µM |  | > 100 µM |  | 
12 | Cn1cnc([N+](=O)[O-])c1SC1=NCCS1 |  | > 100 µM |  |  |  |  |  |  |  | > 100 µM |  | 39 µM |  | > 100 µM |  | > 100 µM |  | > 100 µM |  | 
13 | Cc1ccc(NC(=O)C(=O)C2NC(=S)NC2=O)c([N+](=O)[O-])c1 (stereo not drawn) |  | > 100 µM |  |  |  |  |  |  |  | > 100 µM |  | > 100 µM |  | > 100 µM |  | > 100 µM |  | > 100 µM |  | 
14 | COc1cc(C(=O)/C=C/c2c(-c3ccc(F)cc3)nc3ncccn23)cc(OC)c1OC | 2.43 µM | 6.53 µM | 2.36 µM | 96.6 µM | 2.01 µM | 11.2 µM | 4.35 µM | > 100 µM | 1.9 µM | 14.1 µM |  |  | 2.21 µM | 6.45 µM | 2.38 µM | 6.97 µM |  |  | 1.58 µM | 5.11 µM
15 | C/C=C(\CCC1NCCc2c1[nH]c1ccccc21)[Si](C)(C)C (stereo not drawn) | 7.13 µM and 2.32 µM | 17.5 µM and 5.52 µM |  | 11.1 µM |  | 6.28 µM |  | 16.1 µM |  | 26.2 µM and 23.6 µM |  | 38.5 µM and 4.84 µM | 11.4 µM and 2.79 µM | 25 µM and 8.04 µM | 5.28 µM and 1.94 µM | 9.67 µM and 3.7 µM | 5.29 µM and 1.92 µM | 9.63 µM and 3.63 µM |  | 
16 | O=C1Nc2ccccc2/C1=C/c1cn(C(=O)c2c(Cl)cccc2Cl)c2ccccc12 | 2.24 µM | 9.3 µM | 2.24 µM | 7.1 µM | 2.17 µM | 8.98 µM | 2.39 µM | 11.2 µM | 2.38 µM | 10.6 µM | 1.59 µM | 3.24 µM | 3.17 µM | 21.7 µM |  |  | 2.9 µM | 12.5 µM | 3.4 µM | 18 µM
